Assays:
[1] = target: T1, histone deacetylase activity (HeLa nuclear extract); test: HDAC fluorescent activity assay (Biomol Fluor de Lys), HeLa nuclear extract; type: biochemical; conditions: Fluor de Lys substrate, IC50 range
T1 construct: Histone deacetylase activity from crude nuclear extract derived from HeLa cells was used for screening
Method: The ability of compounds to inhibit histone deacetylase activities was measured using the commercially available HDAC fluorescent activity assay from Biomol. In brief, the Fluor de Lys™ substrate, a lysine with an epsilon-amino acetylation, is incubated with the source of histone deacetylase activity (HeLa nuclear extract) in the presence or absence of inhibitor. Deacetylation of the substrate sensitises the substrate to Fluor de Lys™ developer, which generates a fluorophore. Thus, incubation of the substrate with a source of HDAC activity results in an increase in signal that is diminished in the presence of an HDAC inhibitor.
Data are expressed as a percentage of the control, measured in the absence of inhibitor, with background signal being subtracted from all samples, as follows:— % activity=((S^i−B)/(S^o−B))×100 where S^i is the signal in the presence of substrate, enzyme and inhibitor, S^o is the signal in the presence of substrate, enzyme and the vehicle in which the inhibitor is dissolved, and B is the background signal measured in the absence of enzyme.
IC50 values were determined by non-linear regression analysis, after fitting the results of eight data points to the equation for sigmoidal dose response with variable slope (% activity against log concentration of compound), using Graphpad Prism software.
Histone deacetylase activity from crude nuclear extract derived from HeLa cells was used for screening. The preparation, purchased from 4C (Seneffe, Belgium), was prepared from HeLa cells harvested whilst in exponential growth phase. The nuclear extract is prepared according to Dignam JD1983 Nucl. Acid. Res. 11, 1475-1489, snap frozen in liquid nitrogen and stored at −80° C. The final buffer composition was 20 mM Hepes, 100 mM KCl, 0.2 mM EDTA, 0.5 mM DTT, 0.2 mM PMSF and 20% (v/v) glycerol.

HUT cancer cell line = test: Cell inhibition assay (SRB cell viability), HUT; type: cell-based; conditions: HUT cells, 72 h, IC50 range
Method: (§1) The corresponding cancer cell lines (Hela, U937 and HUT) growing in log phase were harvested and seeded at 1000 cells/well (200 ul final volume) into 96-well tissue culture plates. Following 24 h of cell growth cells were treated with compounds (final concentration of 20 uM). Plates were then re-incubated for a further 72 h before a sulphorhodamine B (SRB) cell viability assay was conducted according to Skehan 1990 J Natl Canc Inst 82, 1107-1112.
(§2) Data were expressed as a percentage inhibition of the control, measured in the absence of inhibitor, as follows:— % inhibition=100−((S^i/S^o)×100) where S^i is the signal in the presence of inhibitor and S^o is the signal in the presence of DMSO. IC50 values were determined by non-linear regression analysis, after fitting the results of eight data points to the equation for sigmoidal dose response with variable slope (% activity against log concentration of compound), using Graphpad Prism software. […] NT=Not tested

Hela cancer cell line = test: Cell inhibition assay (SRB cell viability), Hela; type: cell-based; conditions: 72 h, Hela cells, IC50 range
Method: as §1, §2

SMILES	IC50 [1] [nM]	IC50 (HUT cancer cell line) [nM]	IC50 (Hela cancer cell line; Homo sapiens, HeLa) [nM]	IC50 (Hela cancer cell line) [nM]
CCOC(=O)[C@H](COC(C)(C)C)NCc1cccc(NC(=O)CCCCCCC(=O)NO)c1 [Compound 32, (S)-3-tert-Butoxy-2-[3-(7-hydroxycarbamoyl-heptanoylamino)-benzylamino]-propionic acid ethyl ester]	< 100	330 to 3300	330 to 3300	
O=C(CCCCCCC(=O)N1Cc2ccccc2C[C@H]1C(=O)N[C@H](C(=O)O)c1ccccc1)NO [Compound 45, (S)-{[(S)-2-(7-Hydroxycarbamoyl-heptanoyl)-1,2,3,4-tetrahydro-isoquinoline-3-carbonyl]-amino}-phenyl-acetic acid]	> 1000		> 3300	
O=C(CCCCCCC(=O)Nc1cncc(CN[C@@H](Cc2ccccc2)C(=O)O)c1)NO [Compound 67, (S)-2-{[5-(7-Hydroxycarbamoyl-heptanoylamino)-pyridin-3-ylmethyl]-amino}-3-phenyl-propionic acid]	101 to 1000		> 3300	
O=C(CCCCCNC(=O)c1cccc(CN[C@H](C(=O)OC2CCCC2)c2ccccc2)c1)NO [Compound 69, (S)-[3-(5-Hydroxycarbamoyl-pentylcarbamoyl)-benzylamino]-phenyl-acetic acid cyclopentyl ester]	101 to 1000	330 to 3300	330 to 3300	
O=C(CCCCCNC(=O)c1cccc(CN[C@H](C(=O)O)c2ccccc2)c1)NO [Compound 70, (S)-[3-(5-Hydroxycarbamoyl-pentylcarbamoyl)-benzylamino]-phenyl-acetic acid]	101 to 1000		> 3300	

More lines, now with the values ahead:

IC50 [1] [nM]	IC50 (HUT cancer cell line) [nM]	IC50 (Hela cancer cell line; Homo sapiens, HeLa) [nM]	IC50 (Hela cancer cell line) [nM]	SMILES
101 to 1000			> 3300	O=C(CCCCCCC(=O)N1Cc2ccccc2C[C@H]1C(=O)N[C@@H](Cc1ccccc1)C(=O)O)NO [Compound 49, (S)-2-{[(S)-2-(7-Hydroxycarbamoyl-heptanoyl)-1,2,3,4-tetrahydro-isoquinoline-3-carbonyl]amino}-3-phenyl-propionic acid]
> 1000		> 3300		O=C(CCCCCCC(=O)N1CCCC1C(=O)N[C@H](C(=O)O)c1ccccc1)NO (stereo partly drawn) [Compound 54, (S)-{[1-(7-Hydroxycarbamoyl-heptanoyl)-pyrrolidine-2-carbonyl]-amino}-phenyl-acetic acid]
> 1000		> 3300		O=C(CCCCCCC(=O)N1CCCC1C(=O)N[C@@H](Cc1ccccc1)C(=O)O)NO (stereo partly drawn) [Compound 57, (S)-2-{[1-(7-Hydroxycarbamoyl-heptanoyl)-pyrrolidine-2-carbonyl]-amino}-3-phenyl-propionic acid]
< 100		> 3300		O=C(CCCCCCC(=O)N1Cc2[nH]c3ccccc3c2C(C(=O)NC(Cc2ccccc2)C(=O)O)C1)NO [Compound 59, (S)-2-{[(S)-2-(7-Hydroxycarbamoyl-heptanoyl)-2,3,4,9-tetrahydro-1H-bet α-carboline-4-carbonyl]-amino}-3-phenyl-propionic acid]
101 to 1000		> 3300		O=C(CCCCCCC(=O)Nc1cccc(C(=O)N[C@H](C(=O)O)c2ccccc2)c1)NO [Compound 61, (S)-[3-(7-Hydroxycarbamoyl-heptanoylamino)-benzoylamino]phenyl-acetic acid]
101 to 1000	330 to 3300	330 to 3300		O=C(CCCCCCC(=O)N1CCc2c([nH]c3ccccc23)C1C(=O)N[C@@H](Cc1ccccc1)C(=O)OC1CCCC1)NO (stereo partly drawn) [Compound 64, (S)-2-{[2-(7-Hydroxycarbamoyl-heptanoyl)-2,3,4,9-tetrahydro-1H-beta-carboline-1-carbonyl]-amino}-3-phenyl-propionic acid cyclopentyl ester]
< 100		> 3300		O=C(CCCCCCC(=O)N1CCc2c([nH]c3ccccc23)C1C(=O)N[C@@H](Cc1ccccc1)C(=O)O)NO (stereo partly drawn) [Compound 65, (S)-2-{[2-(7-Hydroxycarbamoyl-heptanoyl)-2,3,4,9-tetrahydro-1H-beta-carboline-1-carbonyl]-amino}-3-phenyl-propionic acid]

Source: patent US9133104B2 (Chroma Therapeutics Ltd., priority 2005, dated 2015)
